# Test results: US20230279482A1, “COMPOSITIONS, METHODS AND USES FOR QUANTIFYING TRANSCRIPTION AND BIOSENSING OF SMALL MOLECULES USING A NOVEL TYPE VI CRISPR-CAS ASSAY” (THE REGENTS OF THE UNIVERSITY OF COLORADO, A BODY CORPORATE, priority 2020, published 2023)
# Biological target: T1, Cas13a (Leptotrichia wadei, UniProt U2PSH1)
# T1 construct: His-tag (N, cleaved yes); twinstrep (N, cleaved yes); SUMO (N, cleaved yes); made in house; host or cells: BL21(DE3) Rosetta Escherichia coli
# T1 sequence (U2PSH1 1-1182): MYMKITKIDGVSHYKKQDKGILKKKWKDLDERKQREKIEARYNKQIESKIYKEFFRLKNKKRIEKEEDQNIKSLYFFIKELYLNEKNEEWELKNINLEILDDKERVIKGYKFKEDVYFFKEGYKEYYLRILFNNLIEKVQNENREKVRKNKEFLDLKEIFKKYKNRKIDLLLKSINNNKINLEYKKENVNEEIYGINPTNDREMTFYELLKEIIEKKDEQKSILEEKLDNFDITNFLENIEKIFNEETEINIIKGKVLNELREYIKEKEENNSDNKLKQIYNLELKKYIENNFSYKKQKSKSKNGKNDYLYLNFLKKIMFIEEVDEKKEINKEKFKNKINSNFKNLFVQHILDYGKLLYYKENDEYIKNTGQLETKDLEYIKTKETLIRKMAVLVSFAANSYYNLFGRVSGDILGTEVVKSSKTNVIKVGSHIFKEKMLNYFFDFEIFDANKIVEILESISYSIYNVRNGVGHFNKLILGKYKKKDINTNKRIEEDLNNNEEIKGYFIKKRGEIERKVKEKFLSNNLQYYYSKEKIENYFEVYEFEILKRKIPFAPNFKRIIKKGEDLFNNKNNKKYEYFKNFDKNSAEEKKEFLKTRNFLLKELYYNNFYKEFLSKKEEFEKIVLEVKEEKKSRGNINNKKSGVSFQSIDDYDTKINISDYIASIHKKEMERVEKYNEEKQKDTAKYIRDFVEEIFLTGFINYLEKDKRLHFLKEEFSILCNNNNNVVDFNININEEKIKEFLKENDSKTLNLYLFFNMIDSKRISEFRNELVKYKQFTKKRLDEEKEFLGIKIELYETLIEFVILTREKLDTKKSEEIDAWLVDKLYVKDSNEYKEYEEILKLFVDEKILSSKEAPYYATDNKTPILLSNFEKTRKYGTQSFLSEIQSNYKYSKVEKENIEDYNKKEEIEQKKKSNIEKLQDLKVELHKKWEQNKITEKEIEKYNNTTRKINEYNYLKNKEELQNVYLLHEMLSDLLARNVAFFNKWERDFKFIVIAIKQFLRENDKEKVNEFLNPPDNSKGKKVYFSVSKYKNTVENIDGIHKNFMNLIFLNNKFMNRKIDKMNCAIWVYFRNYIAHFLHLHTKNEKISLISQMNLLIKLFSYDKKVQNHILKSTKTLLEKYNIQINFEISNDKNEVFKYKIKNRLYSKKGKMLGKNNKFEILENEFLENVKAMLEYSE
# Test: SHERLOCK reactions without RNAP at varying sodium fluoride
# Assay type: biochemical, Leptotrichia wadeii
# Conditions: FIG. 6A
# Procedure: Purification of LwaCas13a protein. LwaCas13a from Leptotrichia wadeii has a specific preference for collaterally cleaving poly-uracil ssRNA oligos and was used for various experiments in these examples. LwaCas13a was purified as follows. The expression plasmid (pC013) encoded LwaCas13a with an N-terminal His-tag, followed by twinstrep and SUMO tags. The plasmid was transformed into BL21(DE3) Rosetta Escherichia coli cells. 20 mL bacterial culture was grown overnight in Luria broth (LB) medium supplemented with 100 μM carbenicillin that was used to inoculate 1 L cultures in LB medium. The culture was shaken at 37° C. until the OD600 reached around 0.6. The culture was cooled down to approximately 20° C. in a cold water bath and protein expression was induced by adding 0.5 mM Isopropyl beta-D-1-thiogalactopyronoside (IPTG). The culture was grown in a 20° C. shaker for 16 hours. […] Protein concentration was determined using the absorbance at 280 nm and an extinction coefficient of 119800 M^−1 cm^−1; 1.5 mL of 47 μM protein was obtained from 2 liters of culture. […]
# In other methods, SHERLOCK reactions were performed with purified target RNA as input, the concentration of the components, order of addition of components and measurement of fluorescence was carried out the same way as in the SPRINT reactions. […]
compound,measurement,value
"[F-].[Na+] [fluoride, sodium fluoride]",fluoride concentration at which Cas13a activity sharply dropped,around 600 μM
